According to patent US7521469B2, “Phosphinic amino acid compounds” (Les Laboratoires Servier, priority 2005, dated 2009):

Assays:
[1] = target: ACE (recombinant human form) (Homo sapiens, UniProt P12821); assay: In vitro inhibitory effect on angiotensin converting enzyme (ACE), quenched-fluorescence substrate; format: biochemical; conditions: inhibitor incubated with enzyme 45 minutes; substrate Mca-Arg-Pro-Pro-Gly-Phe-Ser-Pro-DpaCOOH 5 μM
Protocol: (§1) In vitro inhibitory effect on angiotensin converting enzyme (ACE) and endothelin converting enzyme (ECE)
(§2) In order to compare their specificity, the compounds of the Examples were tested on 2 enzymes: ACE (recombinant human form) and ECE (recombinant human form of the isoform ECE-1c).
(§3) The tests were carried out in duplicate in 96-well plates. The inhibitor was incubated together with the enzyme for 45 minutes before the addition of a quenched-fluorescence substrate. The fluorescence emitted was detected and measured in a Fluoroscan Ascent plate reader (Thermo-Labsystems).
(§4) The fluorogenic substrates used are: Mca-Arg-Pro-Pro-Gly-Phe-Ser-Pro-DpaCOOH (5 μM) with ACE, and Mca-Arg-Pro-Pro-Gly-Phe-Ser-Ala-Phc-Lys(Dnp)COOH (5 μM; R&D Systems) with ECE.

[2] = target: T1, ECE (recombinant human form of the isoform ECE-1c) (Homo sapiens, UniProt P42892); assay: In vitro inhibitory effect on endothelin converting enzyme (ECE), quenched-fluorescence substrate; format: biochemical; conditions: inhibitor incubated with enzyme 45 minutes; substrate Mca-Arg-Pro-Pro-Gly-Phe-Ser-Ala-Phc-Lys(Dnp)COOH 5 μM
T1 sequence (P42892 1-754 isoform P42892-3): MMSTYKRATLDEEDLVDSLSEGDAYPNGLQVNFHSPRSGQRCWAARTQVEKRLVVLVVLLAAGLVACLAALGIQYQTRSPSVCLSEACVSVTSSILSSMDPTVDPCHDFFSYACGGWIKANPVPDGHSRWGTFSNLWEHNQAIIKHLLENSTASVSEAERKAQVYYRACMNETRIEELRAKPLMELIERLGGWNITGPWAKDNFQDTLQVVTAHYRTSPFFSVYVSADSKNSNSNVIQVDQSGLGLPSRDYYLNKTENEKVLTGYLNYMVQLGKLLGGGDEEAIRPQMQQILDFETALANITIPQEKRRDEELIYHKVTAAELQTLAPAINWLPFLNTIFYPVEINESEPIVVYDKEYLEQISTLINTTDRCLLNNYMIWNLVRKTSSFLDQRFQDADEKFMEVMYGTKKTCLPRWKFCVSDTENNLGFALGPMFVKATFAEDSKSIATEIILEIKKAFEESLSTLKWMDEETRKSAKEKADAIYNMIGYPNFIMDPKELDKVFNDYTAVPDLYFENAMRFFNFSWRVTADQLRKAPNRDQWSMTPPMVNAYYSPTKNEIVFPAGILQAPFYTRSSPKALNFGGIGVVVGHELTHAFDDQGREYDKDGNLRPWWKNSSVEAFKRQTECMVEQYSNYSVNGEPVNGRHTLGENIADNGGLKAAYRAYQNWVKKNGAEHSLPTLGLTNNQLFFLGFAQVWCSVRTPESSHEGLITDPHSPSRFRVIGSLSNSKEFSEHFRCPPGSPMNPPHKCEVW
Protocol: as §1, §2, §3, §4

Chain of ACE (recombinant human form) (P12821 30-1306): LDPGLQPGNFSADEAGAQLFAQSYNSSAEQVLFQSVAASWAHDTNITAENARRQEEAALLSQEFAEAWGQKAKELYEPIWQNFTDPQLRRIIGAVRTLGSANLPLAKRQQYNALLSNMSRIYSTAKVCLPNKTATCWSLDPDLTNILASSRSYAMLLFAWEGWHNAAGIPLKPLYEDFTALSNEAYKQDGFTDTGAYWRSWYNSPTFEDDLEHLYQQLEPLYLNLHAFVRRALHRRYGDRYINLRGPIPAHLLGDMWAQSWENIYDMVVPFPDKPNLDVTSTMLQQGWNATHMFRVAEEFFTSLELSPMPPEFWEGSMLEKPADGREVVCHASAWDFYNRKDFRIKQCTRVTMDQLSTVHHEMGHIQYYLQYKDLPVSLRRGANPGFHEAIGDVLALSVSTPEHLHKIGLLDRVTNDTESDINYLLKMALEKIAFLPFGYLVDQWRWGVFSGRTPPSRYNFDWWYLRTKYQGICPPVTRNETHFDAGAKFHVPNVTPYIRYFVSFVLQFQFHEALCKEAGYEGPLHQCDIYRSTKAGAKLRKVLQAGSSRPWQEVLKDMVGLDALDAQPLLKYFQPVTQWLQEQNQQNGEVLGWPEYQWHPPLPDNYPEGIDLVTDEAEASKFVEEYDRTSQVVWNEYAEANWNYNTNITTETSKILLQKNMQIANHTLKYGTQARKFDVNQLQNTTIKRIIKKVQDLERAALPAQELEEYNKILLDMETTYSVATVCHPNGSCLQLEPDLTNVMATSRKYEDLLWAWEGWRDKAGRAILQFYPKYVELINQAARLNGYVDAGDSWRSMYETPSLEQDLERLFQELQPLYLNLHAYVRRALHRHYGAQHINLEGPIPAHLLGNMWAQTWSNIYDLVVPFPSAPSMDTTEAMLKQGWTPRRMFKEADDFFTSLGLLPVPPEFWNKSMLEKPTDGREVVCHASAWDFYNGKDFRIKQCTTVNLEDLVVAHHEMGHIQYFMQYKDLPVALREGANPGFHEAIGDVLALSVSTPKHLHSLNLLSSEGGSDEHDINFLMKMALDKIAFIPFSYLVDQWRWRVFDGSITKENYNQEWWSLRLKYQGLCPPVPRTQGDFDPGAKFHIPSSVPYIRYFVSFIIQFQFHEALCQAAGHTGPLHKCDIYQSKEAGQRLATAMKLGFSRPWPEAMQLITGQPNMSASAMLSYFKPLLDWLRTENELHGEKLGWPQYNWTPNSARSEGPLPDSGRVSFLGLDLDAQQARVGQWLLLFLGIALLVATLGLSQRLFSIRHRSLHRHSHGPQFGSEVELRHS

| IC50 [1] [nM] | IC50 [2] [nM] | SMILES |
| --- | --- | --- |
| 36 | 8 | O=C(N[C@@H](Cc1ccccc1)P(=O)(O)C[C@H](Cc1cc(-c2ccccc2)no1)C(=O)N[C@@H](Cc1c[nH]c2ccccc12)C(=O)O)OCc1ccccc1 [Example 1, (5R,8R,11S)-5-Benzyl-6-hydroxy-11-(1H-indol-3-ylmethyl)-3,9-dioxo-1-phenyl-8-[(3-phenyl-5-isoxazolyl)methyl]-2-oxa-4,10-diaza-6-phosphadodecan-12-oic acid 6-oxide] |
| 3.8 | 7.7 | O=C(N[C@@H](Cc1ccccc1)P(=O)(O)C[C@H](Cc1cc(-c2ccccc2)no1)C(=O)N[C@@H](Cc1ccccc1)C(=O)O)OCc1ccccc1 [Example 2, (5R,8R,11S)-5,11-Dibenzyl-6-hydroxy-3,9-dioxo-1-phenyl-8-[(3-phenyl-5-isoxazolyl)methyl]-2-oxa-4,10-diaza-6-phosphadodecan-12-oic acid 6-oxide] |
| 1.4 | 1.4 | O=C(N[C@@H](Cc1ccccc1)P(=O)(O)C[C@H](Cc1cc(-c2ccccc2)no1)C(=O)N[C@@H](Cc1ccc(O)cc1)C(=O)O)OCc1ccccc1 [Example 3, (5R,8R,11S)-5-Benzyl-6-hydroxy-11-(4-hydroxybenzyl)-3,9-dioxo-1-phenyl-8-[(3-phenyl-5-isoxazolyl)methyl]-2-oxa-4,10-diaza-6-phosphadodecan-12-oic acid 6-oxide] |
